Molecular target: T1, Xanthine oxidase (XOD) (Bos taurus, UniProt P80457)
T1 construct: gene XDH; commercial XOD immobilized on polydopamine-modified hollow fiber (XOD@PDA@HF)
Test: immobilized enzyme inhibition at […], hypoxanthine substrate, HPLC detection of uric acid
Format: biochemical

T1 sequence (P80457 2-1332): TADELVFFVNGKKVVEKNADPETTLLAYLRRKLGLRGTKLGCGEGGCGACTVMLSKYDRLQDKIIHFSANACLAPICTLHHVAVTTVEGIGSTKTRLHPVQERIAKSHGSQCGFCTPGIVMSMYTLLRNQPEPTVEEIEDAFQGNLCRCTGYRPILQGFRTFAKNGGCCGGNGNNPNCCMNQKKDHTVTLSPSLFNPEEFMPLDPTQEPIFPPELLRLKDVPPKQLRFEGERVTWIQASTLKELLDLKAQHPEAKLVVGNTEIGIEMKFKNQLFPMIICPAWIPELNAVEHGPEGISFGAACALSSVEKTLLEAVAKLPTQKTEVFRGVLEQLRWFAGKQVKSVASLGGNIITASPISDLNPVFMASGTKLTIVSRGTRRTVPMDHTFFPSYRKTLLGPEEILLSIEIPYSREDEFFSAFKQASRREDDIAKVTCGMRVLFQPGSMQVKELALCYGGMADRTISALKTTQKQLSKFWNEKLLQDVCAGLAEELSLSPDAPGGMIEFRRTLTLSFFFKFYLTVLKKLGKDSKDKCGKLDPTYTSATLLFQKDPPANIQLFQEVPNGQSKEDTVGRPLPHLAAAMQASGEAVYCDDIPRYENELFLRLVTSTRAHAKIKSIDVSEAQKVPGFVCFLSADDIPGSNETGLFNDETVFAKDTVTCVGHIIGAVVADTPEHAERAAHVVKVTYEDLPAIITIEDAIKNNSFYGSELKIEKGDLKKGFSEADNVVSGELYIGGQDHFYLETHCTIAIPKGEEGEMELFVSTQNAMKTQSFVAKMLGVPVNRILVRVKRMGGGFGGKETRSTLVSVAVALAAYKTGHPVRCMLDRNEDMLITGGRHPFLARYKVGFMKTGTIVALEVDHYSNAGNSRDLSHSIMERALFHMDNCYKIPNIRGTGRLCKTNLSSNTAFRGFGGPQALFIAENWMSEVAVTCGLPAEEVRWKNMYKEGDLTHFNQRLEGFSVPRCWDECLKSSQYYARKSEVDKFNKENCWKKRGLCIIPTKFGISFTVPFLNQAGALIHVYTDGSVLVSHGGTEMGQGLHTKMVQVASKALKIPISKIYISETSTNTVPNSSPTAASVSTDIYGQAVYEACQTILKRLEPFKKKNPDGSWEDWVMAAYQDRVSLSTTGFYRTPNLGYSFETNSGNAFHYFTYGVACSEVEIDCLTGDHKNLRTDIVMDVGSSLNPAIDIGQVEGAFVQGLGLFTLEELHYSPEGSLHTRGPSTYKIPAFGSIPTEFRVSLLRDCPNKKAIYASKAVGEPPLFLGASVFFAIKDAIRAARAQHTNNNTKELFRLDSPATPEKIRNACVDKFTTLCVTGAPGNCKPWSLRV

SMILES	inhibition at 1000 µM
O=c1cc(-c2ccc(O)cc2)oc2cc(O)cc(O)c12 [Apigenin]	80.98 ± 0.64%
Oc1cc(O)c2c(c1)O[C@H](c1cc(O)c(O)c(O)c1)[C@H](O)C2 [Epigallocatechin]	54.92 ± 0.41%
O=c1c(-c2ccc(O)cc2)coc2c([C@@H]3O[C@H](CO)[C@@H](O)[C@H](O)[C@H]3O)c(O)ccc12 [Puerarin]	61.1 ± 6.26%
O=c1c(O)c(-c2ccc(O)c(O)c2)oc2cc(O)cc(O)c12 [Quercetin]	79.9 ± 3.5%

Source: PMC8271864, “Evaluation of Enzyme Inhibitory Activity of Flavonoids by Polydopamine-Modified Hollow Fiber-Immobilized Xanthine Oxidase” (Molecules, 2021)
